{"source": "paper PMC6268972", "about": "“Antiproliferative, Antimicrobial and Apoptosis Inducing Effects of Compounds Isolated from Inula viscosa” (Molecules, 2012)", "tested_on": "Bacillus cereus", "experiment": "Scanning electron microscopy of Bacillus cereus cells", "format": "cell-based", "details": "62.5 µg/mL, 24 h", "procedure": "MCF-7 cells were cultured in complete DMEM containing either 15 µg/mL of 3-O-methylquercetin or 3,3′-di-O-methylquercetin and incubated for 48 h in humidified CO2 incubator. Negative control cells were incubated with complete DMEM and positive control cells received complete DMEM containing 40 nM vincristin sulfate. Treated cells were fixed with 3% glutaraldehyde for 1.5 h followed by osmium tetroxide (2% in PBS) for 1 h. After fixation, cells were washed in PBS and sequentially dehydrated using 30%, 70%, and 100% ethanol. Fixed cells were attached to a metal stubs and sputter coated with platinum by using Emitech K550X coating unit (Qourum Technology, West Sussex, UK). The coated specimens were viewed using Inspect F50/FEG scanning electron microscope (FEI, Eindhoven, The Netherlands) at accelerating voltage of 2–5 kV. Bacillus cereus cells treated with 3,3′-di-O-methylquercetin for 24 h were collected by centrifugation and washed with sodium phosphate buffer. Following that, the samples were fixed in 2.5% glutaraldehyde in 0.1 M phosphate buffer, pH 7.3, at 4 °C overnight, and postfixed in 1% osmium tetroxide in the phosphate buffer for 1 h at room temperature. Bacterial cells were dehydrated with sequential ethanol concentrations (30–100%) and coated for the observations under scanning electron microscope.", "note": "“Also recorded” adds a separate entry of the source.", "data": [{"smiles": "COc1cc(-c2oc3cc(O)cc(O)c3c(=O)c2OC)ccc1O", "note": "[3,3′-di-O-Methylquercetin]", "values": [{"measurement": "Morphological changes of bacterial cells (scanning electron microscopy)", "value": "induced damage in bacterial cell walls and cytoplasmic membranes"}, {"measurement": "Morphological changes of bacterial cells (scanning electron microscopy)", "setting": "listed as 3,3′-di-O-methylquercetin", "value": "Damages on both the bacterial cell wall and the cytoplasmic membrane; also recorded: Leakage of intracellular constituents"}]}]}
